# US20250163104A1, “MACROCYCLIC IMMUNOMODULATORS” (priority 2021, published 2025)
# Where a SMILES comes first, the peptide text is derived from it. Bridges are numbered along the chain shown (N, C = ends). [ ]: non-standard residue; d: D form. The star is where a group is joined. Phe(4-COOH) = N[C@@H](Cc1ccc(C(=O)O)cc1)C(=O)O; Bip = N[C@@H](Cc1ccc(-c2ccccc2)cc1)C(=O)O; Phe(3-F) = N[C@@H](Cc1cccc(F)c1)C(=O)O; Cit = NC(=O)NCCC[C@H](N)C(=O)O; Carboxymethyl = O=C(O)C*; Orn = NCCC[C@H](N)C(=O)O; Dab = NCC[C@H](N)C(=O)O; Dap = NC[C@H](N)C(=O)O
# Molecular target: T1, human PD-1 / PD-L1-Ig binding on Jurkat cell line over-expressing human PD-1 (Jurkat-PD-1) (Homo sapiens, UniProt Q15116)
# T1 construct: expressed in transfected cells; host or cells: Jurkat
# T1 sequence (Q15116 25-288): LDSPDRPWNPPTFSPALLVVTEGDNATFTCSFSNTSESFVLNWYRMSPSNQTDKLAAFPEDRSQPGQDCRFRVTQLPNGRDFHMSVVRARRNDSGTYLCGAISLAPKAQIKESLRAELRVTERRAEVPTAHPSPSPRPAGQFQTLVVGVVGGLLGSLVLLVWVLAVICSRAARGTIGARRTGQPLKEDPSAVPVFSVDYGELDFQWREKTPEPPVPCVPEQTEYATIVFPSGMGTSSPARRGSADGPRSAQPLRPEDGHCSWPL
# Assay: Jurkat-PD-1 Cell Binding High-Content Screening Assay (CBA)
# Assay type: cell-based
# Conditions: Jurkat HPD1_PDL1 IC50, Jurkat-PD-1 cells, PE-labeled PD-L1-Ig 20 nM final
# Outline: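 Compounds were preincubated with Jurkat-hPD-1 cells in DMEM plus 10% fetal calf serum for 2 h at 37° C. Phycoerythrin-labeled PD-L1-Ig (20 nM final) was then added for 1 hour. Cells were fixed in 4% paraformaldehyde with Hoechst 33342, and bound fluorescence was quantified by high-content imaging.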
row,SMILES,IC50
1,CC(C)C[C@H]1NC(=O)[C@H](CCCN)NC(=O)[C@H](CCCNC(N)=O)NC(=O)[C@H](Cc2ccc(-c3ccccc3)cc2)NC(=O)[C@H](C(C)C)NC(=O)[C@H](Cc2c[nH]c3ccccc23)NC(=O)[C@H](CC(=O)O)NC(=O)[C@H](Cc2ccc(C(=O)O)cc2)NC(=O)[C@H](Cc2ccc(OCC(=O)O)cc2)NC(=O)CSC[C@@H](C(=O)N[C@@H](C)C(N)=O)NC(=O)[C@H]([C@@H](C)O)NC(=O)[C@H](C(C)C)NC(=O)[C@H](Cc2ccccc2)NC(=O)[C@H](CCN)NC1=O [Compound 1664] ({CH2CO}-Y(Carboxymethyl)[Phe(4-COOH)]DWV[Bip][Cit][Orn][dL][Dab]FVTCA-NH2; thioether N-14),36.3 nM

# Same assay, conditions: Jurkat-PD-1 cells, PE-labeled PD-L1-Ig 20 nM final; read-out: Jurkat HPD1_PDL1 IC50
row,SMILES,IC50
1,CC(C)C[C@H]1NC(=O)[C@H](CCCN)NC(=O)[C@H](CCC(=O)O)NC(=O)[C@H](Cc2ccc(-c3ccccc3)cc2)NC(=O)[C@H](C(C)C)NC(=O)[C@H](Cc2c[nH]c3ccccc23)NC(=O)[C@H](CC(=O)O)NC(=O)[C@H](Cc2ccc(C(=O)O)cc2)NC(=O)[C@H](Cc2ccc(OCC(=O)O)cc2)NC(=O)CSC[C@@H](C(=O)N[C@@H](C)C(N)=O)NC(=O)[C@H]([C@@H](C)O)NC(=O)[C@H](C(C)C)NC(=O)[C@H](Cc2ccccc2)NC(=O)[C@H](CCN)NC1=O [Compound 1667] ({CH2CO}-Y(Carboxymethyl)[Phe(4-COOH)]DWV[Bip]E[Orn][dL][Dab]FVTCA-NH2; thioether N-14),30 nM
2,CC(C)C[C@H]1NC(=O)[C@H](CCCN)NC(=O)[C@H](CCC(=O)O)NC(=O)[C@H](Cc2ccc(-c3ccccc3)cc2)NC(=O)[C@H](C(C)C)NC(=O)[C@H](Cc2c[nH]c3ccccc23)NC(=O)[C@H](CC(=O)O)NC(=O)[C@H](Cc2ccc(OCC(=O)O)cc2)NC(=O)[C@H](Cc2ccc(OCC(=O)O)cc2)NC(=O)CSC[C@@H](C(=O)N[C@@H](C)C(N)=O)NC(=O)[C@H]([C@@H](C)O)NC(=O)[C@H](C(C)C)NC(=O)[C@H](Cc2ccccc2)NC(=O)[C@H](CCN)NC1=O [Compound 1668] ({CH2CO}-Y(Carboxymethyl)Y(Carboxymethyl)DWV[Bip]E[Orn][dL][Dab]FVTCA-NH2; thioether N-14),48.7 nM
3,CC[C@H](C)[C@@H]1NC(=O)[C@H](Cc2ccc(-c3ccccc3)cc2)NC(=O)[C@H](C(C)C)NC(=O)[C@H](Cc2c[nH]c3ccccc23)NC(=O)[C@H](CC(=O)O)NC(=O)[C@H](Cc2ccc(OCC(=O)O)cc2)NC(=O)[C@H](Cc2ccc(OCC(=O)O)cc2)NC(=O)CSC[C@@H](C(=O)N[C@@H](C)C(N)=O)NC(=O)[C@H]([C@@H](C)O)NC(=O)[C@H](C(C)C)NC(=O)[C@H](Cc2cccc(F)c2)NC(=O)[C@H](CCN)NC(=O)[C@@H](CC(C)C)NC(=O)[C@H](CCCN)NC1=O [Compound 1671] ({CH2CO}-Y(Carboxymethyl)Y(Carboxymethyl)DWV[Bip]I[Orn][dL][Dab][Phe(3-F)]VTCA-NH2; thioether N-14),22.9 nM
4,CC(C)C[C@H]1NC(=O)[C@H](CCCN)NC(=O)[C@H](C(C)C)NC(=O)[C@H](Cc2ccc(-c3ccccc3)cc2)NC(=O)[C@H](C(C)C)NC(=O)[C@H](Cc2c[nH]c3ccccc23)NC(=O)[C@H](CC(=O)O)NC(=O)[C@H](Cc2ccc(OCC(=O)O)cc2)NC(=O)[C@H](CN)NC(=O)CSC[C@@H](C(=O)N[C@@H](C)C(N)=O)NC(=O)[C@H]([C@@H](C)O)NC(=O)[C@H](C(C)C)NC(=O)[C@H](Cc2cccc(F)c2)NC(=O)[C@H](CCN)NC1=O [Compound 1672] ({CH2CO}-[Dap]Y(Carboxymethyl)DWV[Bip]V[Orn][dL][Dab][Phe(3-F)]VTCA-NH2; thioether N-14),11.2 nM
5,CC(C)C[C@H]1NC(=O)[C@H](CCCN)NC(=O)[C@H](C(C)C)NC(=O)[C@H](Cc2ccc(-c3ccccc3)cc2)NC(=O)[C@H](C(C)C)NC(=O)[C@H](Cc2c[nH]c3ccccc23)NC(=O)[C@H](CC(=O)O)NC(=O)[C@H](Cc2ccc(C(=O)O)cc2)NC(=O)[C@H](Cc2ccc(OCC(=O)O)cc2)NC(=O)CSC[C@@H](C(=O)N[C@@H](C)C(N)=O)NC(=O)[C@H]([C@@H](C)O)NC(=O)[C@H](C(C)C)NC(=O)[C@H](Cc2cccc(F)c2)NC(=O)[C@H](CCN)NC1=O [Compound 1673],13.6 nM

# Second part, the compound after the results:
row,IC50,SMILES
1,17 nM,CC(C)C[C@H]1NC(=O)[C@H](CCCN)NC(=O)[C@H](CCCNC(N)=O)NC(=O)[C@H](Cc2ccc(-c3ccccc3)cc2)NC(=O)[C@H](C(C)C)NC(=O)[C@H](Cc2c[nH]c3ccccc23)NC(=O)[C@H](CC(=O)O)NC(=O)[C@H](Cc2ccc(OCC(=O)O)cc2)NC(=O)[C@H](Cc2ccc(OCC(=O)O)cc2)NC(=O)CSC[C@@H](C(=O)N[C@@H](C)C(N)=O)NC(=O)[C@H]([C@@H](C)O)NC(=O)[C@H](C(C)C)NC(=O)[C@H](Cc2ccccc2)NC(=O)[C@H](CCN)NC1=O [Compound 1665] ({CH2CO}-Y(Carboxymethyl)Y(Carboxymethyl)DWV[Bip][Cit][Orn][dL][Dab]FVTCA-NH2; thioether N-14)
2,17.3 nM,CC(C)C[C@H]1NC(=O)[C@H](CCCN)NC(=O)[C@H](CCC(=O)O)NC(=O)[C@H](Cc2ccc(-c3ccccc3)cc2)NC(=O)[C@H](C(C)C)NC(=O)[C@H](Cc2c[nH]c3ccccc23)NC(=O)[C@H](CC(=O)O)NC(=O)[C@H](Cc2ccc(OCC(=O)O)cc2)NC(=O)[C@H](CN)NC(=O)CSC[C@@H](C(=O)N[C@@H](C)C(N)=O)NC(=O)[C@H]([C@@H](C)O)NC(=O)[C@H](C(C)C)NC(=O)[C@H](Cc2ccccc2)NC(=O)[C@H](CCN)NC1=O [Compound 1666] ({CH2CO}-[Dap]Y(Carboxymethyl)DWV[Bip]E[Orn][dL][Dab]FVTCA-NH2; thioether N-14)
3,23.5 nM,CC[C@H](C)[C@@H]1NC(=O)[C@H](Cc2ccc(-c3ccccc3)cc2)NC(=O)[C@H](C(C)C)NC(=O)[C@H](Cc2c[nH]c3ccccc23)NC(=O)[C@H](CC(=O)O)NC(=O)[C@H](Cc2ccc(OCC(=O)O)cc2)NC(=O)[C@H](CN)NC(=O)CSC[C@@H](C(=O)N[C@@H](C)C(N)=O)NC(=O)[C@H]([C@@H](C)O)NC(=O)[C@H](C(C)C)NC(=O)[C@H](Cc2cccc(F)c2)NC(=O)[C@H](CCN)NC(=O)[C@@H](CC(C)C)NC(=O)[C@H](CCCN)NC1=O [Compound 1669] ({CH2CO}-[Dap]Y(Carboxymethyl)DWV[Bip]I[Orn][dL][Dab][Phe(3-F)]VTCA-NH2; thioether N-14)
4,13.9 nM,CC[C@H](C)[C@@H]1NC(=O)[C@H](Cc2ccc(-c3ccccc3)cc2)NC(=O)[C@H](C(C)C)NC(=O)[C@H](Cc2c[nH]c3ccccc23)NC(=O)[C@H](CC(=O)O)NC(=O)[C@H](Cc2ccc(C(=O)O)cc2)NC(=O)[C@H](Cc2ccc(OCC(=O)O)cc2)NC(=O)CSC[C@@H](C(=O)N[C@@H](C)C(N)=O)NC(=O)[C@H]([C@@H](C)O)NC(=O)[C@H](C(C)C)NC(=O)[C@H](Cc2cccc(F)c2)NC(=O)[C@H](CCN)NC(=O)[C@@H](CC(C)C)NC(=O)[C@H](CCCN)NC1=O [Compound 1670]
5,16.9 nM,CC(C)C[C@H]1NC(=O)[C@H](CCCN)NC(=O)[C@H](C(C)C)NC(=O)[C@H](Cc2ccc(-c3ccccc3)cc2)NC(=O)[C@H](C(C)C)NC(=O)[C@H](Cc2c[nH]c3ccccc23)NC(=O)[C@H](CC(=O)O)NC(=O)[C@H](Cc2ccc(OCC(=O)O)cc2)NC(=O)[C@H](Cc2ccc(OCC(=O)O)cc2)NC(=O)CSC[C@@H](C(=O)N[C@@H](C)C(N)=O)NC(=O)[C@H]([C@@H](C)O)NC(=O)[C@H](C(C)C)NC(=O)[C@H](Cc2cccc(F)c2)NC(=O)[C@H](CCN)NC1=O [Compound 1674] ({CH2CO}-Y(Carboxymethyl)Y(Carboxymethyl)DWV[Bip]V[Orn][dL][Dab][Phe(3-F)]VTCA-NH2; thioether N-14)
